# Assay results published in patent US20230399312A1, “SUBSTITUTED PYRIMIDINES AND METHODS OF USE” (THERAVANCE BIOPHARMA R&D IP, LLC, priority 2020, published 2023).
# Assays:
# [1] = biological target: T1, recombinant human ALK5 (TGF-βR1) protein (Homo sapiens, UniProt P36897); test: Biochemical ALK5 (TGF-βR1) assay to measure pKi (LANCE Ultra ULight kinase assay); conditions: apparent pKi, converted from pIC50 by Cheng-Prusoff
# T1 construct: purchased Life Technologies PR9075A
# T1 sequence (P36897 34-503): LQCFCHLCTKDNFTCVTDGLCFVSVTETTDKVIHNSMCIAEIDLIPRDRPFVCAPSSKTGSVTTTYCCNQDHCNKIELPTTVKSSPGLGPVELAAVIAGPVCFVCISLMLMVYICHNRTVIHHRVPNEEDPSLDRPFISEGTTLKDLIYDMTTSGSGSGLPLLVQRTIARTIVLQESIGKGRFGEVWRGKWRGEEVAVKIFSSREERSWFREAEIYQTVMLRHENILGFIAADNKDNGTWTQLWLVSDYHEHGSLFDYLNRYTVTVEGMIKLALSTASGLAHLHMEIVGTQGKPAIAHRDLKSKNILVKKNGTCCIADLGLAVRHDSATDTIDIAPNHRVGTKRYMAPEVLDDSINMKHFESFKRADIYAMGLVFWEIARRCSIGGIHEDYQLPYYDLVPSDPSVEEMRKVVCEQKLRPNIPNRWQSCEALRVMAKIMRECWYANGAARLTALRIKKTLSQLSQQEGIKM
# Outline: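 Enzyme preincubated with compound for 60 min at room temperature, then reacted with ATP (125 μM as 5× stock) for 60 min at 37 °C. Stopped with EDTA plus Eu-anti-phospho-Topoisomerase 2-alpha (Thr1342) antibody and read by TR-FRET at 665 nm. pIC50 from a 4-parameter fit, converted to pKi by Cheng-Prusoff.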
# [2] = tested on: TGF-β-stimulated SMAD3 phosphorylation in BEAS-2B cells; test: Cellular ALK5 potency assay, inhibition of TGF-β stimulated pSMAD3 formation in BEAS-2B cells; type: cell-based; conditions: Homo sapiens, pSMAD3, TGF-β 10 ng/mL, read-out: BEAS2B pIC50 (converted)
# Outline: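 Reported as pIC50, potency reflects dose-dependent loss of AlphaLISA pSMAD3 signal versus TGF-β-stimulated, compound-free BEAS-2B cells. Compound was applied for 1 h in BSA-containing HBSS buffer before a 30-min challenge with TGF-β at 10 ng/mL final.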
Ki [1] [nM],SMILES,IC50 [2] [nM]
0.398 to 3.16,"Cc1cccc(-c2nccc(Nc3ccnc(Nc4nc(C(=O)OCC5CNC5)cs4)n3)n2)n1 [Compound 256, azetidin-3-ylmethyl 2-[[4-[[2-(6-methyl-2-pyridyl)pyrimidin-4-yl]amino]pyrimidin-2-yl]amino]thiazole-4-carboxylate]",200 to 1260
0.0398 to 0.316,"CC(=O)N1CCN(S(=O)(=O)c2ccc(Nc3nccc(Nc4ccnc(-c5cccc(C)n5)n4)n3)cc2)CC1 [Compound 12, 1-[4-[4-[[4-[[2-(6-methyl-2-pyridyl)pyrimidin-4-yl]amino]pyrimidin-2-yl]amino]phenyl]sulfonylpiperazin-1-yl]ethanone]",25.1 to 158
0.0398 to 0.316,"COC1CN(Cc2ccc(Nc3nccc(Nc4ccnc(-c5cccc(C)n5)n4)n3)cc2)C1 [Compound 127, N2-[4-[(3-methoxyazetidin-1-yl)methyl]phenyl]-N4-[2-(6-methyl-2-pyridyl)pyrimidin-4-yl]pyrimidine-2,4-diamine]",25.1 to 158
0.398 to 3.16,"COC(=O)C1CN(Cc2ccc(Nc3nccc(Nc4ccnc(-c5cccc(C)n5)n4)n3)cc2)CCN1C (stereo not shown) [Compound 201, methyl 1-methyl-4-[[4-[[4-[[2-(6-methyl-2-pyridyl)pyrimidin-4-yl]amino]pyrimidin-2-yl]amino]phenyl]methyl] piperazine-2-carboxylate]",25.1 to 158
0.398 to 3.16,"Cc1cccc(-c2nccc(Nc3ccnc(Nc4nc(CN(C)C5CNC5)cs4)n3)n2)n1 [Compound 467, N2-[4-[[azetidin-3-yl(methyl)amino]methyl]thiazol-2-yl]-N4-[2-(6-methyl-2-pyridyl)pyrimidin-4-yl]pyrimidine-2,4-diamine]",25.1 to 158
≤ 0.0316,"Cc1cccc(-c2nccc(Nc3ccnc(Nc4ccc(N5CCC(N6CCCC6)CC5)cc4)n3)n2)n1 [Compound 123, N4-[2-(6-methyl-2-pyridyl)pyrimidin-4-yl]-N2-[4-(4-pyrrolidin-1-yl-1-piperidyl)phenyl]pyrimidine-2,4-diamine]",25.1 to 158
0.0398 to 0.316,"Cc1cccc(-c2nccc(Nc3ccnc(Nc4ccc(N5CCN(CCO)CC5)cc4)n3)n2)n1 [Compound 534, 2-[4-[4-[[4-[[2-(6-methyl-2-pyridyl)pyrimidin-4-yl]amino]pyrimidin-2-yl]amino]phenyl]piperazin-1-yl]ethanol]",25.1 to 158
0.0398 to 0.316,"Cc1cccc(-c2nccc(Nc3ccnc(Nc4ccc(CN5CCC(C(=O)O[C@@H]6CCN(C)C6)C5)cc4)n3)n2)n1 (stereo partly drawn) [Compound 195, [(3R)-1-methylpyrrolidin-3-yl] 1-[[4-[[4-[[2-(6-methyl-2-pyridyl)pyrimidin-4-yl]amino]pyrimidin-2-yl]amino]phenyl]methyl] pyrrolidine-3-carboxylate]",25.1 to 158
0.0398 to 0.316,"Cc1cccc(-c2nccc(Nc3ccnc(Nc4ccc(N5CCN(C6CCNC6)CC5)cc4)n3)n2)n1 (stereo not shown) [Compound 429, N4-[2-(6-methyl-2-pyridyl)pyrimidin-4-yl]-N2-[4-(4-pyrrolidin-3-ylpiperazin-1-yl)phenyl]pyrimidine-2,4-diamine]",200 to 1260
0.0398 to 0.316,"Cc1cccc(-c2nccc(Nc3ccnc(Nc4ccc(CN5CCCC(C(=O)O[C@@H]6CCNC6)C5)cc4)n3)n2)n1 (mixture of isomers) [Compound 105, [rac-(3R)-pyrrolidin-3-yl] 1-[[4-[[4-[[2-(6-methyl-2-pyridyl)pyrimidin-4-yl]amino]pyrimidin-2-yl]amino]phenyl]methyl] piperidine-3-carboxylate]",25.1 to 158
0.398 to 3.16,"Cc1cccc(-c2nccc(Nc3ccnc(Nc4ccccc4)n3)n2)n1 [Compound 43, N4-[2-(6-methyl-2-pyridyl)pyrimidin-4-yl]-N2-phenyl-pyrimidine-2,4-diamine]",≤ 20
0.0398 to 0.316,"Cc1cccc(-c2nccc(Nc3ccnc(Nc4ccc(CN5CCN[C@@H](C(=O)O)C5)cc4)n3)n2)n1 [Compound 200, (2R)-4-[[4-[[4-[[2-(6-methyl-2-pyridyl)pyrimidin-4-yl]amino]pyrimidin-2-yl]amino]phenyl]methyl] piperazine-2-carboxylic acid]",200 to 1260
0.0398 to 0.316,"CNC(=O)[C@H]1CN(Cc2ccc(Nc3nccc(Nc4ccnc(-c5cccc(C)n5)n4)n3)cc2)CCN1 [Compound 293, (2R)-N-methyl-4-[[4-[[4-[[2-(6-methyl-2-pyridyl)pyrimidin-4-yl]amino]pyrimidin-2-yl]amino]phenyl]methyl] piperazine-2-carboxamide]",25.1 to 158
0.0398 to 0.316,"Cc1cccc(-c2nccc(Nc3ccnc(Nc4ccc(NC(=O)N5CCN(C(C)C)CC5)cc4)n3)n2)n1 [Compound 110, 4-isopropyl-N-[4-[[4-[[2-(6-methyl-2-pyridyl)pyrimidin-4-yl]amino]pyrimidin-2-yl]amino]phenyl]piperazine-1-carboxamide]",25.1 to 158
0.0398 to 0.316,"Cc1cccc(-c2nccc(Nc3ccnc(Nc4ccc(N5CCC(C(=O)OC6CCNC6)CC5)cc4)n3)n2)n1 (stereo not shown) [Compound 101, pyrrolidin-3-yl 1-[4-[[4-[[2-(6-methyl-2-pyridyl)pyrimidin-4-yl]amino]pyrimidin-2-yl]amino]phenyl]piperidine-4-carboxylate]",25.1 to 158
0.0398 to 0.316,"Cc1cccc(-c2nccc(Nc3ccnc(Nc4ccc(N5CCC(N(C)CC(C)C)CC5)cc4)n3)n2)n1 [Compound 393, N2-[4-[4-[isobutyl(methyl)amino]-1-piperidyl]phenyl]-N4-[2-(6-methyl-2-pyridyl)pyrimidin-4-yl]pyrimidine-2,4-diamine]",25.1 to 158
0.0398 to 0.316,"Cc1cccc(-c2nccc(Nc3ccnc(Nc4ccc(S(=O)(=O)N5CCN(C)CC5)cc4)n3)n2)n1 [Compound 270, N2-[4-(4-methylpiperazin-1-yl)sulfonylphenyl]-N4-[2-(6-methyl-2-pyridyl)pyrimidin-4-yl]pyrimidine-2,4-diamine]",25.1 to 158
0.0398 to 0.316,"Cc1cccc(-c2nccc(Nc3ccnc(Nc4cc(C(=O)OC5CNC5)cs4)n3)n2)n1 [Compound 207, azetidin-3-yl 5-[[4-[[2-(6-methyl-2-pyridyl)pyrimidin-4-yl]amino]pyrimidin-2-yl]amino]thiophene-3-carboxylate]",25.1 to 158
0.0398 to 0.316,"Cc1cccc(-c2nccc(Nc3ccnc(Nc4cc(F)c(NC(=O)C5CCNCC5)c(Cl)c4)n3)n2)n1 [Compound 184, N-[2-chloro-6-fluoro-4-[[4-[[2-(6-methyl-2-pyridyl)pyrimidin-4-yl]amino]pyrimidin-2-yl]amino]phenyl]piperidine-4-carboxamide]",25.1 to 158
0.0398 to 0.316,"Cc1cccc(-c2nccc(Nc3ccnc(Nc4ccc(F)c(CN5CCN(C)CC5)c4)n3)n2)n1 [Compound 244, N2-[4-fluoro-3-[(4-methylpiperazin-1-yl)methyl]phenyl]-N4-[2-(6-methyl-2-pyridyl)pyrimidin-4-yl]pyrimidine-2,4-diamine]",25.1 to 158
≤ 0.0316,"COC(=O)Cc1cc(Nc2nccc(Nc3ccnc(-c4cccc(C)n4)n3)n2)ccc1N1CCNCC1 [Compound 252, methyl 2-[5-[[4-[[2-(6-methyl-2-pyridyl)pyrimidin-4-yl]amino]pyrimidin-2-yl]amino]-2-piperazin-1-yl-phenyl]acetate]",25.1 to 158
3.98 to 31.6,"Cc1cccc(-c2nccc(Nc3ccnc(Nc4ccc(C(=O)OC5CNC5)cn4)n3)n2)n1 [Compound 622, azetidin-3-yl 6-[[4-[[2-(6-methyl-2-pyridyl)pyrimidin-4-yl]amino]pyrimidin-2-yl]amino]pyridine-3-carboxylate]",25.1 to 158
0.0398 to 0.316,"Cc1cccc(-c2nccc(Nc3ccnc(Nc4csc(C(=O)OC5CCNCC5)c4)n3)n2)n1 [Compound 591, 4-piperidyl 4-[[4-[[2-(6-methyl-2-pyridyl)pyrimidin-4-yl]amino]pyrimidin-2-yl]amino]thiophene-2-carboxylate]",25.1 to 158
0.0398 to 0.316,"Cc1cccc(-c2nccc(Nc3ccnc(Nc4ccc(S(=O)(=O)N(C)CCN)cc4)n3)n2)n1 [Compound 63, N-(2-aminoethyl)-N-methyl-4-[[4-[[2-(6-methyl-2-pyridyl)pyrimidin-4-yl]amino]pyrimidin-2-yl]amino]benzenesulfonamide]",25.1 to 158
0.0398 to 0.316,"Cc1cccc(-c2nccc(Nc3ccnc(Nc4cnn(CCN)c4)n3)n2)n1 [Compound 53, N2-[1-(2-aminoethyl)pyrazol-4-yl]-N4-[2-(6-methyl-2-pyridyl)pyrimidin-4-yl]pyrimidine-2,4-diamine]",200 to 1260
0.0398 to 0.316,"CC[C@@H](C)OC(=O)CC1CNCCN1c1ccc(Nc2nccc(Nc3ccnc(-c4cccc(C)n4)n3)n2)cc1 (stereo partly drawn) [Compound 9, [(1R)-1-methylpropyl] 2-[1-[4-[[4-[[2-(6-methyl-2-pyridyl)pyrimidin-4-yl]amino]pyrimidin-2-yl]amino]phenyl]piperazin-2-yl]acetate]",25.1 to 158
